In paper PMC10571751, “Polyarginine Cell-Penetrating Peptides Bind and Inhibit SERCA2” (Cells, 2023):
Where no end group is shown, it is not given here. The star is where a group is joined. Biotin = O=C1N[C@H]2[C@H](CS[C@H]2CCCCC(=O)*)N1

B1: biotin-Arg11 (peptide)
peptide: Biotin-RRRRRRRRRRR
notes: polyarginine cell-penetrating peptide of 11 arginines; Peptides were synthesized with or without the N-terminal biotin; ELISA and SPR used the biotinylated form; also called biotinylated Arg11; polyarginine CPP; source: synthetic peptide (GenScript Biotech Corp, >80% purity)

Legend:
[1] = test system: rat left ventricular cardiomyocytes; experiment: Field-stimulated whole-cell Ca2+ transients in isolated rat cardiomyocytes; type: cell-based, rat (Wistar); details: versus untreated Ctr, 5 µmol/L, 1 h preincubation, 1 Hz, 37 °C
From the text: For single cell experiments, rat left ventricular cardiomyocytes were isolated as described previously. In brief, rats were anaesthetized by inhalation of a mixture of 5% isoflurane and 95% O2. Hearts were then rapidly excised and mounted via the aorta on a Langendorff apparatus to enable retrograde perfusion with buffer containing collagenase Type II (Worthington Biochemical Corporation, Lakewood, NJ, USA). Following digestion, the heart was cut down, diced, and agitated, and isolated cardiomyocytes were then filtered, washed, and sedimented. Cells were stored in a solution containing (in mmol/L) 130 NaCl, 5.4 KCl, 25 HEPES, 0.5 MgCl2, 0.4 NaH2PO4, 22 glucose, 0.2 CaCl2 (pH 7.40, 22 °C) until use, within 6 h of isolation.
Prior to experiments, cardiomyocytes were preincubated for 1 h with 5 µmol/L of the individual CPPs added to the cell storage solution. During the last 10 min of incubation, cells were additionally loaded with fluo-4 AM (5 µmol/L, Thermo Fisher Scientific, Waltham, MA, USA) for Ca^2+ imaging. The cells were then plated on the stage of an inverted microscope and perfused with HEPES-Tyrode solution containing (in mmol/L) 140 NaCl, 0.5 MgCl2, 5.0 HEPES, 5.5 glucose, 0.4 NaH2PO4, 5.4 KCl, and 1.8 CaCl2 at pH 7.4, 37 °C. Whole-cell Ca^2+ transients were recorded by wide-field photometry, as described previously, using a D-104 microscope photometer and photomultiplier tube (Horiba Ltd., Kyoto, Japan). During field stimulation at 1 Hz, fluorescence was excited by a 475 nm light-emitting diode, and emission was collected at >510 nm.
Ca^2+ signals were analysed by first subtracting background fluorescence values from the cellular recordings. Ca^2+ transient magnitude was calculated as peak fluorescence divided by resting fluorescence (F/F0). The decay time of Ca^2+ transients was assessed using a monoexponential fit of the declining phase of the Ca^2+ transient to calculate tau (s), using Clampfit 10.4 software (Molecular Devices LLC, Sunnyvale, CA, USA).

[2] = test system: SERCA (SR vesicles from mouse left ventricle; SERCA2a); experiment: Oxalate-supported SR Ca2+ uptake and leak in mouse left ventricular homogenates (wild-type); type: biochemical, mouse (C57BL/6NT); details: 40 µmol/L CPP without cargo, 5 min, 37 °C, pH 7.0; uptake started with Na4ATP; Fura-2 340/390; nruns Ctr, TAT, Arg9, Arg11 = 69, 14, 23, 24
From the text: (§1) Ca^2+ handling was also examined in homogenates prepared from mouse left ventricle, rat soleus, and rat extensor digitorum longus (EDL) muscles using methods described by O’Brien and modified by Li et al.. Freshly excised left ventricles and muscles were weighed and homogenized in ice cold homogenization buffer (1:10 wet weight/vol, pH 7.9) containing (in mmol/L) 300 sucrose, 5 NaN3, 1 EDTA, 40 L-histidine, 40 Tris HCl, and protease inhibitors (Complete EDTA-free No 05056489001, Roche, Mannheim, Germany). Homogenization was performed with a Polytron 1200 (Kinematica AG, Luzern, Switzerland) at 25,000 rpm for 3 × 20 s, with a 20 s break between bursts. Homogenates were then aliquoted, frozen in liquid N2, and stored at −80 °C until use.
(§2) 10–20 µL of freshly thawed and vortexed homogenate was added to 250 µL of “assay” buffer, containing (in mmol/L) 165 KCl, 22 Hepes, 7.5 oxalate, 11 NaN3, 0.0055 TPEN, 4.5 MgCl2, 9 Tris HCl, and 0.002 Fura-2 salt (pH 7.0, 37 °C). […]
(§3) Ca^2+ fluxes were monitored as Fura-2 fluorescence ratio (340 nm/390 nm) using a Hidex Sense Multimodal Microplate Reader (Kem-En-Tec Nordic AS, Uppsala, Sweden). […] The fluorescence ratio was calibrated to [Ca^2+] using the following equation: [Ca^2+] = Kd × ((R − Rmin)/(Rmax − R)) × (Sf2/Sb2), where R is the 340 nm/390 nm fluorescence ratio, and Kd is the dissociation constant of Fura-2 and Ca^2+ (224 nmol/L). Rmin is the fluorescence ratio at very low [Ca^2+] and Rmax is the ratio at saturating [Ca^2+], obtained by sequentially adding 3.3 mmol/L EGTA and 4.8 mmol/L CaCl2 to the well at the end of each recording. Sf2/Sb2 is the ratio of measured fluorescence intensity at 390 nm when Fura-2 is Ca^2+-free (3.3 mmol/L EGTA) or Ca^2+-bound (4.8 mmol/L CaCl2).
(§4) Ca^2+ recordings were smoothed using TableCurve 2D (V 5.01, Systat Software Inc., Palo Alto, CA, USA) prior to analysis. After the addition of Na4ATP, the rate constant for Ca^2+ uptake (k) was calculated by fitting the uptake curve to Ca^2+ = Ca^2+0 + ae^−t×k (Sigmaplot V14.0, Systat Software Inc.). […]

[3] = test system: SERCA (SR vesicles from left ventricle of PLB knockout mice); experiment: Oxalate-supported SR Ca2+ uptake and leak in left ventricular homogenates of phospholamban knockout mice; type: biochemical, mouse (phospholamban knockout); details: 40 µmol/L CPP without cargo, 5 min, 37 °C, pH 7.0; nruns Ctr, TAT, Arg9, Arg11 = 58, 12, 17, 15
From the text: as §1, §2, §3, §4

[4] = test system: SERCA (rat soleus homogenates; SERCA2a); experiment: Oxalate-supported Ca2+ uptake, leak and releasable Ca2+ in rat soleus homogenates; type: biochemical, rat (Wistar); details: 40 µmol/L CPP without cargo, 5 min, 37 °C, pH 7.0; nruns Ctr, TAT, Arg9, Arg11 = 6, 5, 6, 6
From the text: as §1, §2, §3, §4

rat SERCA1 = experiment: Oxalate-supported Ca2+ uptake in homogenates of HEK293 cells transfected with SERCA1; type: biochemical; details: nruns Ctr, Arg9, Arg11 = 4, 5, 5
Experimental: (§5) 10–20 µL of freshly thawed and vortexed homogenate was added to 250 µL of “assay” buffer, containing (in mmol/L) 165 KCl, 22 Hepes, 7.5 oxalate, 11 NaN3, 0.0055 TPEN, 4.5 MgCl2, 9 Tris HCl, and 0.002 Fura-2 salt (pH 7.0, 37 °C). Each CPP was added to attain a final concentration of 40 µmol/L and incubated for 5 min at 37 °C prior to experiments.
as §3, with “Sweden). Ca^2+ uptake by the vesicles was initiated by the addition of Na4ATP (2.2 mmol/L) and blocked by the application of thapsigargin (1.5 µmol/L) after 12 min [16].” for “Sweden).”, “CaCl2). […]” for “CaCl2).”

rat SERCA3 = experiment: Oxalate-supported Ca2+ uptake in homogenates of HEK293 cells transfected with SERCA3; type: biochemical; details: nruns Ctr, Arg9, Arg11 = 4, 5, 5
Experimental: as §5
as §3, with “Sweden). Ca^2+ uptake by the vesicles was initiated by the addition of Na4ATP (2.2 mmol/L) and blocked by the application of thapsigargin (1.5 µmol/L) after 12 min [16].” for “Sweden).”, “CaCl2). […]” for “CaCl2).”

rat SERCA2a = experiment: Oxalate-supported Ca2+ uptake in homogenates of HEK293 cells transfected with SERCA2a; type: biochemical; details: for Ca2+ uptake, SERCA2a-transfected cells, versus untreated: nruns Ctr, Arg9, Arg11 = 12, 16, 16
Experimental: as §5
(§6) Ca^2+ fluxes were monitored as Fura-2 fluorescence ratio (340 nm/390 nm) using a Hidex Sense Multimodal Microplate Reader (Kem-En-Tec Nordic AS, Uppsala, Sweden). Ca^2+ uptake by the vesicles was initiated by the addition of Na4ATP (2.2 mmol/L) and blocked by the application of thapsigargin (1.5 µmol/L) after 12 min [16]. SR Ca^2+ content, i.e., the “releasable Ca^2+” was estimated by adding the ryanodine receptor opener 4-Chloro-m-cresol (CmC, 5.5 mmol/L). The fluorescence ratio was calibrated to [Ca^2+] using the following equation: [Ca^2+] = Kd × ((R − Rmin)/(Rmax − R)) × (Sf2/Sb2), where R is the 340 nm/390 nm fluorescence ratio, and Kd is the dissociation constant of Fura-2 and Ca^2+ (224 nmol/L). Rmin is the fluorescence ratio at very low [Ca^2+] and Rmax is the ratio at saturating [Ca^2+], obtained by sequentially adding 3.3 mmol/L EGTA and 4.8 mmol/L CaCl2 to the well at the end of each recording. Sf2/Sb2 is the ratio of measured fluorescence intensity at 390 nm when Fura-2 is Ca^2+-free (3.3 mmol/L EGTA) or Ca^2+-bound (4.8 mmol/L CaCl2).
(§7) Ca^2+ recordings were smoothed using TableCurve 2D (V 5.01, Systat Software Inc., Palo Alto, CA, USA) prior to analysis. After the addition of Na4ATP, the rate constant for Ca^2+ uptake (k) was calculated by fitting the uptake curve to Ca^2+ = Ca^2+0 + ae^−t×k (Sigmaplot V14.0, Systat Software Inc.). Ca^2+ leak from the vesicles was calculated as the linear rise (slope) of the Ca^2+ signal after blockade of SERCA by thapsigargin. Leak measurements were normalized to SR content, determined as the peak [Ca^2+] after addition of CmC. […]

rat SERCA2b = experiment: Oxalate-supported Ca2+ uptake in homogenates of HEK293 cells transfected with SERCA2b; type: biochemical; details: for Ca2+ uptake, SERCA2b-transfected cells, versus untreated: nruns Ctr, Arg9, Arg11 = 12, 12, 12
Experimental: as §5, §6, §7

[5] = test system: SERCA (rat EDL homogenates; SERCA1); experiment: Oxalate-supported Ca2+ uptake, leak and releasable Ca2+ in rat EDL homogenates; type: biochemical, rat (Wistar); details: 40 µmol/L, 5 min, 37 °C, pH 7.0; without (Figure 4B) and with cargo (Figure 4D)
From the text: as §1, with “use. […]” for “use.”
as §3, with “Sf2/Sb2 is the ratio of measured fluorescence intensity at 390 nm when Fura-2 is Ca^2+-free (3.3 mmol/L EGTA) or Ca^2+-bound (4.8 mmol/L CaCl2).” left out

12xHis-SERCA2(111-253) = target: T1, 12xHis-SERCA2(111-253) (UniProt P16615 111-253); experiment: SPR; Biacore X100; biotinylated Arg11 immobilised on an SA chip at 744.3 RU; 12xHis-SERCA2(111-253) injected at 0.7–200 nM, 0.19–50 nM or 12.5–200 nM, 30 µL/minute for 180 s; dissociation 600 or 1000 s; 1 × Biacore running buffer; one-to-one Langmuir model; details: both partners purified
T1 construct: also called recombinant SERCA2 polypeptide containing the A-domain; actuator domain of SERCA2; source: recombinant, generated by Genscript; dialysed into Biacore running buffer for SPR
T1 sequence (P16615 111-253): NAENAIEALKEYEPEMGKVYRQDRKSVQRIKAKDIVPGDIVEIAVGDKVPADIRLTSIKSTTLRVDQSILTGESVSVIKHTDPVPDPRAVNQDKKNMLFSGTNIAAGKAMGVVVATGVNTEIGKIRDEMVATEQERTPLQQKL

| Molecule | effect on Ca2+ transient decay (tau), in words [1] | Ca2+ uptake rate, effect versus untreated control [2] | Ca2+ uptake, PLB knockout, effect versus untreated control [3] | Ca2+ uptake rate in soleus, effect versus untreated control [4] | Ca2+ uptake rate, SERCA1-transfected cells, versus untreated (rat SERCA1) | Ca2+ uptake rate, SERCA3-transfected cells, versus untreated (rat SERCA3) | Ca2+ uptake, SERCA2a-transfected cells, versus untreated (rat SERCA2a) | Ca2+ uptake, SERCA2b-transfected cells, versus untreated (rat SERCA2b) | increase in tau value for Ca2+ removal (Ca2+ transient decay) ([1]; p = 0.021, ncells Ctr 37, Arg11 31, 4 hearts) | inhibition of Ca2+ uptake compared with Arg9, SERCA2a (rat SERCA2a; comparison Arg11 versus Arg9) | inhibition of Ca2+ uptake compared with Arg9, SERCA2b (rat SERCA2b; comparison Arg11 versus Arg9) | Ca2+ uptake rate in EDL, effect versus untreated control [5] | Kd (12xHis-SERCA2(111-253)) | koff (12xHis-SERCA2(111-253)) | kon (12xHis-SERCA2(111-253)) |
| --- | --- | --- | --- | --- | --- | --- | --- | --- | --- | --- | --- | --- | --- | --- | --- |
| RRRRRRRRR [Arg9] | No such effects were noted | slowed Ca^2+ uptake, albeit to a lesser extent than Arg11 | lesser but statistically significant inhibition | lesser but statistically significant inhibition | Neither Arg9 nor Arg11 altered the Ca^2+ uptake rate | Neither Arg9 nor Arg11 altered the Ca^2+ uptake rate | significantly slowed Ca^2+ uptake | significantly slowed Ca^2+ uptake |  |  |  |  |  |  |  |
| RRRRRRRRRRR [Arg11] | slowing of Ca^2+ transient decay | marked slowing of Ca^2+ uptake | tending to cause the most marked inhibition of Ca^2+ uptake | most marked effect | Neither Arg9 nor Arg11 altered the Ca^2+ uptake rate | Neither Arg9 nor Arg11 altered the Ca^2+ uptake rate | significantly slowed Ca^2+ uptake | significantly slowed Ca^2+ uptake | 14% | tended to be more marked than that induced by Arg9 | tended to be more marked than that induced by Arg9 |  |  |  |  |
| RKKRRQRRR [TAT, reference compound] | No such effects were noted | no significant effect | did not observe inhibition of SERCA2 activity | did not alter the rate of Ca^2+ uptake |  |  |  |  |  |  |  | did not observe inhibition of SERCA2 activity |  |  |  |
| B1 |  |  |  |  |  |  |  |  |  |  |  |  | 0.4 nM | 6.6e-05 s⁻¹ | 210000 M⁻¹ s⁻¹ |
